Our source for the IC50 values is US7498353B2, “Heterocyclic anti-viral compounds comprising metabolizable moieties and their uses” (priority 2005, dated 2009).

The subject of test [1] is HCV NS5A protein in 9-13 replicon cells. Description: Quantitative Western blot replicon assay (HEPC_REPLICON-ICWESTERN). The class given is cell-based, Hepatitis C virus (HCV). Conditions: Hepatitis C virus; 9-13 replicon cells, 50% reduction in NS5A protein; read-out: HEPC_REPLICON-ICWESTERN Result Value (IC50). The procedure:
Alternatively, the inhibitory activity of the metabolically active agents of the prodrugs can be confirmed using a quantitative Western immunoblot assay utilizing antibodies specific for HCV non-structural proteins, such as NS3, NS4A NS5A and NS5B. In one embodiment of this assay, replicon cells are treated with varying concentrations of test prodrug to determine the concentration of the metabolically active agent of the test prodrug that yields a 50% reduction in the amount of a non-structural protein produced as compared to a control sample (IC50). A single non-structural protein may be quantified or multiple non-structural proteins may be quantified. Antibodies suitable for carrying out such immunoblot assays are available commercially (e.g., from BIODESIGN International, Saco, Me.).
Certain prodrugs of the invention, which may inhibit HCV translation or replication prior to metablism and/or are metabolized into active agents, were also tested for their ability to inhibit HCV replication using a quantitative Western blot analysis with antibodies specific for the HCV NS5A or other non-structural proteins. Actively dividing 9-13 replicon cells were seeded into 6-well plates at a density of 1×10^5 cells/well in a volume of 2 ml/well and incubated at 37° C. and 5% CO2 for 24 hours. Various concentrations of test prodrugs (in a volume of 10 ul) were added to the wells and the cells incubated for another 48 hours. Protein samples were prepared from the cultured cells, resolved on a SDS-PAGE gel and transferred to a nitrocellulose membrane. The membrane was blocked with 5% non-fat milk in PBS for 1 hour at room temperature. Primary antibody (anti NS5A antibody; BIODESIGN International, Saco, Me.) incubation was performed for 1 hour at room temperature, after which the membrane was washed 3 times (for 15 min per time) with PBST (PBS plus 0.1% Tween 20). Horseradish peroxidase conjugated secondary antibody incubation was performed for 1 hour at room temperature and the membrane was washed 3 times (for 15 min per time) with PBST. The membrane was then soaked in substrate solution (Pierce) and exposed to a film or quantified using an imager. In this assay, the amount of test prodrug that is believed to be transformed into an active agent under the given conditions that yielded a 50% reduction in the amount of NS5A protein translated as compared to a control sample (IC50) was determined.
(In general: Immunoblotting shows a protein as a band on a membrane.)

Test [2] relates to HCV replicon in 5-2 Luc replicon-comprising cells. Kind of test: HCV replicon assay, luciferase readout (HEPC_REPLICON-LUC). Format: cell-based. To be noted: Hepatitis C virus; 5-2 Luc replicon cells, 50% reduction in luciferase emission; read-out: HEPC_REPLICON-LUC Result Value (IC50). An excerpt:
In one embodiment, the inhibitory activity of the metabolically active agent of the prodrug can be confirmed in a replicon assay that assesses the ability of a test compound to block or inhibit HCV replication in replicon cells. One example of a suitable replicon assay is the liver cell-line Huh 7-based replicon assay described in Lohmann et al., 1999, Science 285:110-113. A specific example of this replicon assay which utilizes luciferase translation is provided in the Examples Section. In one embodiment of this assay, the amount of test prodrug that yields a 50% reduction in translation as compared to a control cell (IC50) may be determined.
The inhibitory activity of certain prodrugs of the invention, which may inhibit HCV translation or replication prior to metablism and/or are metabolized into active agents, was confirmed using an HCV replicon assay. The HCV replicon can include such features as the HCV 5′ untranslated region including the HCV IRES, the HCV 3′ untranslated region, selected HCV genes encoding HCV polypeptides, selectable markers, and a reporter gene such as luciferase, GFP, etc. In the assay, actively dividing 5-2 Luc replicon-comprising cells (obtained from Ralf Bartenschlager; see Lohmann et al., 1999, Science 285:110-113) were seeded at a density of between about 5,000 and 7,500 cells/well onto 96 well plates (about 90 μl of cells per well) and incubated at 37° C. and 5% CO2 for 24 hours. Then, the test prodrug (in a volume of about 10 μl) was added to the wells at various concentrations and the cells were incubated for an additional 24-48 hours before luciferase assay. The media was aspirated from each well and Bright-Glo (Promega, Madison, Wis.) luciferase assay reagents were added to each well according to the manufacturer's instructions. Briefly, the Bright-Glo reagent was diluted 1:1 with PBS and 100 μl of diluted reagent was added to each well. After 5 min of incubation at room temperature, luciferin emission was quantified with a luminometer. In this assay, the amount of test prodrug that yielded a 50% reduction in luciferase emission (IC50) was determined. This IC50 value may represent the antiviral activity of the prodrug itself, the activity of prodrug transformed into its active metabolized form, or a combination of the two.
Background: Replicon systems follow genome replication, usually without infectious particles.

What is called IC50 is the concentration at which inhibition is half-maximal. With `O=C(C(Cl)Cl)N(CCP(=O)(O)O)c1cccc(-c2cc(-c3c(Cl)cccc3Cl)no2)c1` [Cpd. No. 2, 2-(2,2-Dichloro-N-(3-(3-(2,6-dichlorophenyl)isoxazol-5-yl)phenyl)acetamido)ethylphosphonic acid], the half-inhibitory concentration (IC50) in test [1] and in test [2] was over 20 µM throughout. Regarding `NCCN(C(=O)C(Cl)Cl)c1cccc(-c2cc(-c3c(Cl)cccc3Cl)no2)c1` [Cpd. No. 16, N-(2-Aminoethyl)-2,2-dichloro-N-(3-(3-(2,6-dichlorophenyl)isoxazol-5-yl)phenyl)acetamide], the IC50 in test [1] and in test [2] was 1 to 20 µM each time. Regarding `CC(C)[C@H](NC(=O)OC(C)(C)C)C(=O)N[C@H](CN(C(=O)C(Cl)Cl)c1cccc(-c2cc(-c3c(Cl)cccc3Cl)no2)c1)C(C)C` [Cpd. No. 27, tert-Butyl (S)-1-((S)-1-(2,2-Dichloro-N-(3-(3-(2,6-dichlorophenyl)isoxazol-5-yl)phenyl)acetamido)-3-methylbutan-2-ylamino)-3-methyl-1-oxobutan-2-ylcarbamate], in test [2], the IC50 is over 20 µM. With `CC[C@H](C)[C@H](NC(=O)OC(C)(C)C)C(=O)N[C@H](CN(C(=O)C(Cl)Cl)c1cccc(-c2cc(-c3c(Cl)cccc3Cl)no2)c1)C(C)C` [Cpd. No. 28, tert-Butyl (2S,3S)-1-((S)-1-(2,2-Dichloro-N-(3-(3-(2,6-dichlorophenyl)isoxazol-5-yl)phenyl)acetamido)-3-methylbutan-2-ylamino)-3-methyl-1-oxopentan-2-ylcarbamate], the IC50 in test [2] was over 20 µM.

In the case of `CC(C)C(NC(=O)C(CCC(=O)OC(C)(C)C)NC(=O)OC(C)(C)C)C(=O)CCN(C(=O)C(Cl)Cl)c1ccnc(-c2cc(-c3c(Cl)cccc3Cl)no2)c1` (centres unmarked) [Cpd. No. 55, tert-Butyl 4-(tert-Butoxycarbonylamino)-5-(6-(2,2-dichloro-N-(2-(3-(2,6-dichlorophenyl)isoxazol-5-yl)pyridin-4-yl)acetamido)-2-methyl-4-oxohexan-3-ylamino)-5-oxopentanoate], the figures for the concentration for half-maximal inhibition (IC50) in test [1] and in test [2] were 1 to 20 µM and under 1 µM, respectively. Consider `CC(C)C(N)C(=O)CCN(C(=O)C(Cl)Cl)c1ccnc(-c2cc(-c3c(Cl)cccc3Cl)no2)c1` (centres unmarked) [Cpd. No. 3, N-(4-Amino-5-methyl-3-oxohexyl)-2,2-dichloro-N-(2-(3-(2,6-dichlorophenyl)isoxazol-5-yl)pyridin-4-yl)acetamide], for which the IC50 in test [1] and in test [2] was under 1 µM throughout. Regarding `CC(C)OCN(C(=O)C(Cl)Cl)c1ccnc(-c2cc(-c3c(Cl)cccc3Cl)no2)c1` [Cpd. No. 9, 2,2-Dichloro-N-(2-(3-(2,6-dichlorophenyl)isoxazol-5-yl)pyridin-4-yl)-N-(isopropoxymethyl)acetamide], the half-maximal inhibitory concentration (IC50) in test [2] is over 20 µM.

For the molecule `CC(C)C(NC(=O)C(NC(=O)OC(C)(C)C)C(C)C)C(=O)CCN(C(=O)C(Cl)Cl)c1ccnc(-c2cc(-c3c(Cl)cccc3Cl)no2)c1` (centres unmarked) [Cpd. No. 47, tert-Butyl 1-(6-(2,2-Dichloro-N-(2-(3-(2,6-dichlorophenyl)isoxazol-5-yl)pyridin-4-yl)acetamido)-2-methyl-4-oxohexan-3-ylamino)-3-methyl-1-oxobutan-2-ylcarbamate], the concentration for half-maximal inhibition (IC50) in test [1] and in test [2] was under 1 µM in each case.

Consider `CC[C@H](C)[C@H](NC(=O)OC(C)(C)C)C(=O)NCCN(C(=O)C(Cl)Cl)c1cccc(-c2cc(-c3c(Cl)cccc3Cl)no2)c1` [Cpd. No. 29, tert-Butyl (2S,3S)-1-(2-(2,2-Dichloro-N-(3-(3-(2,6-dichlorophenyl)isoxazol-5-yl)phenyl)acetamido)ethylamino)-3-methyl-1-oxopentan-2-ylcarbamate], for which the IC50 in test [2] is over 20 µM. With `CCC(C)OCN(C(=O)C(Cl)Cl)c1ccnc(-c2cc(-c3c(Cl)cccc3Cl)no2)c1` (centres unmarked) [Cpd. No. 10, N-(sec-Butoxymethyl)-2,2-dichloro-N-(2-(3-(2,6-dichlorophenyl)isoxazol-5-yl)pyridin-4-yl)acetamide], the 50% inhibitory concentration (IC50) in test [1] fell in the range of 1 to 20 µM. Take `CC(C)[C@@H](N)C(=O)CCN(C(=O)C(Cl)Cl)c1ccnc(-c2cc(-c3c(Cl)cccc3Cl)no2)c1` [Cpd. No. 61, (R)-N-(4-Amino-5-methyl-3-oxohexyl)-2,2-dichloro-N-(2-(3-(2,6-dichlorophenyl)isoxazol-5-yl)pyridin-4-yl)acetamide]: the IC50 in test [2] is under 1 µM. In the case of `NC(CCC(=O)O)C(=O)CCN(C(=O)C(Cl)Cl)c1ccnc(-c2cc(-c3c(Cl)cccc3Cl)no2)c1` (centres unmarked) [Cpd. No. 4, 4-Amino-7-(2,2-dichloro-N-(2-(3-(2,6-dichlorophenyl)isoxazol-5-yl)pyridin-4-yl)acetamido)-5-oxoheptanoic Acid], the half-inhibitory concentration (IC50) in test [1] was under 1 µM. On the same count and under the same terms, then `CC(C)(C)OC(=O)N[C@H](C(=O)NCCN(C(=O)C(Cl)Cl)c1cccc(-c2cc(-c3c(Cl)cccc3Cl)no2)c1)c1ccccc1` [Cpd. No. 17, (S)-tert-Butyl 2-(2-(2,2-Dichloro-N-(3-(3-(2,6-dichlorophenyl)isoxazol-5-yl)phenyl)acetamido)ethylamino)-2-oxo-1-phenylethylcarbamate], with over 20 µM. Still for that read-out and setting: then `CC(C)[C@@H](CN(C(=O)C(Cl)Cl)c1cccc(-c2cc(-c3c(Cl)cccc3Cl)no2)c1)NC(=O)[C@@H](NC(=O)OC(C)(C)C)c1ccccc1` [Cpd. No. 22, tert-Butyl (S)-2-((S)-1-(2,2-Dichloro-N-(3-(3-(2,6-dichlorophenyl)isoxazol-5-yl)phenyl)acetamido)-3-methylbutan-2-ylamino)-2-oxo-1-phenylethylcarbamate], with 1 to 20 µM. As to `CC(C)[C@H](NC(=O)OC(C)(C)C)C(=O)NCCN(C(=O)C(Cl)Cl)c1cccc(-c2cc(-c3c(Cl)cccc3Cl)no2)c1` [Cpd. No. 30, (S)-tert-Butyl 1-(2-(2,2-Dichloro-N-(3-(3-(2,6-dichlorophenyl)isoxazol-5-yl)phenyl)acetamido)ethylamino)-3-methyl-1-oxobutan-2-ylcarbamate], the concentration for half-maximal inhibition (IC50) in test [2] was over 20 µM.

`CC(C)[C@@H](CN(C(=O)C(Cl)Cl)c1cccc(-c2cc(-c3c(Cl)cccc3Cl)no2)c1)NC(=O)[C@H](N)c1ccccc1` [Cpd. No. 41, N-((S)-2-((R)-2-Amino-2-phenylacetamido)-3-methylbutyl)-2,2-dichloro-N-(3-(3-(2,6-dichlorophenyl)isoxazol-5-yl)phenyl)acetamide]: the 50% inhibitory concentration (IC50) in test [1] was over 20 µM. For the molecule `CNCC(=O)NCCN(C(=O)C(Cl)Cl)c1cccc(-c2cc(-c3c(Cl)cccc3Cl)no2)c1` [Cpd. No. 36, 2,2-Dichloro-N-(3-(3-(2,6-dichlorophenyl)isoxazol-5-yl)phenyl)-N-(2-(2-(methylamino)acetamido)ethyl)acetamide], the concentration for half-maximal inhibition (IC50) in test [1] was 1 to 20 µM. Take `N#CCCN(C(=O)C(Cl)Cl)c1cccc(-c2cc(-c3c(Cl)cccc3Cl)no2)c1` [Cpd. No. 13, 2,2-Dichloro-N-(2-cyanoethyl)-N-(3-(3-(2,6-dichlorophenyl)isoxazol-5-yl)phenyl)acetamide]: in test [1], the half-maximal inhibitory concentration (IC50) is over 20 µM.
